The NIST ThermoML archive (doi:10.1016/j.tca.2012.07.034)

Conditions: Liquid, DSC

CCCCCCCC/C=C\CCCCCCCC(=O)O [(Z)-9-octadecenoic acid]
Conditions | vapor or sublimation pressure [kPa]
496.7 K | 1.333
513.1 K | 2.666
524.7 K | 4
532.1 K | 5.333
538.8 K | 6.666
543.8 K | 7.999
547.4 K | 9.333

CCCCCCCCCCCC(=O)O [dodecanoic acid]
Conditions | vapor or sublimation pressure [kPa]
444.6 K | 1.333
458.9 K | 2.666
468.5 K | 4
475 K | 5.333
479.6 K | 6.666
484.8 K | 7.999
490.5 K | 9.333

CCCCCCCCCCCCCCCC(=O)O [hexadecanoic acid]
Conditions | vapor or sublimation pressure [kPa]
483.3 K | 1.333
498.6 K | 2.666
509 K | 4
517.3 K | 5.333
523.4 K | 6.666
527.9 K | 7.999
533.4 K | 9.333

CCCCCCCCCCCCCCCCCC(=O)O [octadecanoic acid]
Conditions | vapor or sublimation pressure [kPa]
501.3 K | 1.333
519.1 K | 2.666
528.9 K | 4
535.9 K | 5.333
543.7 K | 6.666
548.7 K | 7.999
553.2 K | 9.333

CCCCCCCCCCCCCC(=O)O [tetradecanoic acid]
Conditions | vapor or sublimation pressure [kPa]
464.6 K | 1.333
480.8 K | 2.666
489.5 K | 4
497.2 K | 5.333
503.1 K | 6.666
508.2 K | 7.999
512.6 K | 9.333
